Test results reported in ChEMBL document CHEMBL4673273, “Development of autotaxin inhibitors: A series of tetrazole cinnamides” (Bioorg Med Chem Lett, 2021).

Legend:
[1] = Metabolic stability in rat liver microsomes assessed as intrinsic clearance; assay type: ADME, Microsome; conditions: read-out: CLH
Autotaxin [2] = biological target: T1, Autotaxin (Homo sapiens, UniProt Q13822)
Description: Inhibition of human recombinant ATX expressed in HEK293 cells assessed as inhibition of choline release using LPC (18:1) as substrate preincubated with enzyme for 20 mins followed by substrate addition and measured every 2 mins for 40 mins by resurofin-based fluorescence analysis

[3] = Tmax in Sprague-Dawley rat at 10 mg/kg, po; assay type: ADME, organism-based; conditions: in vivo
[4] = Clearance in Sprague-Dawley rat at 1 mg/kg, iv; assay type: ADME, organism-based; conditions: in vivo
[5] = AUC (0 to infinity) in Sprague-Dawley rat at 10 mg/kg, po; assay type: ADME, organism-based; set-up: route oral, time infinity, dose 10 mg/kg; conditions: in vivo
Autotaxin [6] = biological target: T1, Autotaxin; assay: Inhibition of ATX in human serum assessed as reduction in LPA (18:1) level by LC-MS analysis; assay type: cell-free
[7] = Oral bioavailability in Sprague-Dawley rat at 10 mg/kg; assay type: ADME, organism-based; conditions: in vivo
[8] = Metabolic stability in human liver microsomes assessed as intrinsic clearance; assay type: ADME, Microsome; conditions: read-out: CLH
[9] = biological target: Voltage-gated inwardly rectifying potassium channel KCNH2 (Homo sapiens, UniProt Q12809); assay: Inhibition of human ERG expressed in CHO-K1 cells by automated Qpatch clamp assay
Sequence of Voltage-gated inwardly rectifying potassium channel KCNH2 (Q12809 whole entry): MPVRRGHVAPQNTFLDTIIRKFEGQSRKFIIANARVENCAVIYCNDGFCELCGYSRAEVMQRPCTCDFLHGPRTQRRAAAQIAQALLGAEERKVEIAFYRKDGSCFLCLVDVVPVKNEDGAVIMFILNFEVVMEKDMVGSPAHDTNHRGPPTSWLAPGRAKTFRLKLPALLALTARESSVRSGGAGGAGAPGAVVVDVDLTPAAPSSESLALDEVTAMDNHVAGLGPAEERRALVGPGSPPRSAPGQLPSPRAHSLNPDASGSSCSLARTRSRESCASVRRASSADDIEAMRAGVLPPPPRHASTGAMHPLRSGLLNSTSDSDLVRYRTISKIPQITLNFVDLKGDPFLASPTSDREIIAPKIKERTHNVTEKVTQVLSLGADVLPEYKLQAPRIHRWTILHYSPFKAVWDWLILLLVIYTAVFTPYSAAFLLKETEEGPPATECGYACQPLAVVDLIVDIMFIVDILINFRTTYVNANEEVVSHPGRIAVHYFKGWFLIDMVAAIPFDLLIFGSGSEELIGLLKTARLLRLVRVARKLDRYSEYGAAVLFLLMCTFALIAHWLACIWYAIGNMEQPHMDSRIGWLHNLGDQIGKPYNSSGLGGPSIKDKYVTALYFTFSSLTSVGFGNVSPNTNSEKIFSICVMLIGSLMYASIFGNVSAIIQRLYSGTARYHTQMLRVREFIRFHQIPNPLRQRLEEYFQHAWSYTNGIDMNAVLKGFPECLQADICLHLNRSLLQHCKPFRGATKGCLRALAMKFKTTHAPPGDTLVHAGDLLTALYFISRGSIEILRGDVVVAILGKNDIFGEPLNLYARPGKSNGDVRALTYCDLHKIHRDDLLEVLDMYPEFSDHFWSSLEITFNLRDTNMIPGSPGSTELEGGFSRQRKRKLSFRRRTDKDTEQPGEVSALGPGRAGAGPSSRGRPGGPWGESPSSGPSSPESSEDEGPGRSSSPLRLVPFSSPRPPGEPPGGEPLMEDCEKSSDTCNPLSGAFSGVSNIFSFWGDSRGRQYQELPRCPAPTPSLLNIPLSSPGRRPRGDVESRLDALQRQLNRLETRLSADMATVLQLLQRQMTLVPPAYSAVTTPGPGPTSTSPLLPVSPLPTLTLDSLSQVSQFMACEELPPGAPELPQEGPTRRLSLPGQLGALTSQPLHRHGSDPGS

[10] = Volume of distribution at steady state in Sprague-Dawley rat at 1 mg/kg, iv; assay type: ADME, organism-based; conditions: in vivo, read-out: Vdss
[11] = Cmax in Sprague-Dawley rat at 10 mg/kg, po; assay type: ADME, organism-based; set-up: route oral, dose 10 mg/kg; conditions: in vivo
[12] = Half life in Sprague-Dawley rat at 1 mg/kg, iv; assay type: ADME, organism-based; conditions: in vivo
Rattus norvegicus = assay: (§1) In vivo inhibition of ATX in po dosed Sprague-Dawley rat assessed as inhibition of LPA formation in serum by LC-MS analysis; assay type: functional, organism-based
[13] = as §1; assay type: functional, organism-based
[14] = Equilibrium solubility of compound at pH 6.8; assay type: physicochemical; conditions: buffer
[15] = Passive Permeability of the compound across artificial membrane assessed as fraction absorbed by PAMPA assay

SMILES	microsomal CLint [1]	IC50 (Autotaxin [2])	IC50 [9]	further results
Cc1noc(C2CCN(C(=O)/C=C/c3ccc(C(F)(F)F)cc3Cn3nnc(C)n3)CC2)n1	36 µL/min/mg	–	–	–
Cc1nnn(Cc2cc(C(F)(F)F)ccc2/C=C/C(=O)N2CCC(C(F)(F)F)CC2)n1	41 µL/min/mg	13 nM	–	–
Cc1nnn(Cc2cc(Cl)ccc2/C=C/C(=O)N2CCNC[C@H]2C)n1	84 µL/min/mg	95 nM	–	–
Cc1nnn(Cc2cc(C(F)(F)F)ccc2/C=C/C(=O)N2CCC(c3nnc(C)o3)CC2)n1	19 µL/min/mg	–	23000 nM	Tmax [3]: 1.3 h; clearance [4]: 15 mL/min/kg; AUC [5]: 23.2 µM·h; IC50 (Autotaxin [6]): 12 nM; bioavailability [7]: 94%; microsomal CLint [8]: 13 µL/min/mg; Vd [10]: 1.8 L/kg; Cmax [11]: 5.1 µM; half-life [12]: 3.6 h; inhibition (Rattus norvegicus): Dose-dependent effect; IC50 [13]: 5 nM
Cc1nnn(Cc2cc(Cl)ccc2CCC(=O)N2CCN(Cc3ccc(F)cc3)C[C@H]2C)n1	> 920 µL/min/mg	19 nM	–	–
Cc1nnn(Cc2cc(C(F)(F)F)ccc2/C=C/C(=O)N2CCC(Cl)CC2)n1	89 µL/min/mg	60 nM	> 30000 nM	Fa [15]: 89%
Cc1nnn(Cc2cc(Cl)ccc2/C=C/C(=O)N2CCC(Cc3nnc(C)o3)CC2)n1	89 µL/min/mg	–	> 30000 nM	–
Cc1ncn(C2CCN(C(=O)/C=C/c3ccc(C(F)(F)F)cc3Cn3nnc(C)n3)CC2)n1	15 µL/min/mg	16 nM	25000 nM	microsomal CLint [8]: 16 µL/min/mg
C[C@@H]1CN(Cc2ccc(F)cc2)CCN1C(=O)/C=C/c1ccc(Cl)cc1Cn1ncnn1	730 µL/min/mg	16 nM	–	–
Cc1noc(Cc2cc(Cl)ccc2/C=C/C(=O)N2CCN(Cc3ccc(F)cc3)C[C@H]2C)n1	580 µL/min/mg	18 nM	–	–
Cc1cnn(Cc2cc(Cl)ccc2/C=C/C(=O)N2CCN(Cc3ccc(F)cc3)C[C@H]2C)n1	690 µL/min/mg	5.9 nM	–	–
Cc1nnn(Cc2cc(C(F)(F)F)ccc2/C=C/C(=O)N2CCC(c3noc(C)n3)CC2)n1	35 µL/min/mg	–	> 30000 nM	microsomal CLint [8]: 19 µL/min/mg
Cc1nnn(Cc2cc(C(F)(F)F)ccc2/C=C/C(=O)N2CCC(C#N)CC2)n1	28 µL/min/mg	790 nM	25000 nM	Fa [15]: 27%

Second part, led by results:

microsomal CLint [1]	IC50 (Autotaxin [2])	SMILES	IC50 [9]	further results
570 µL/min/mg	–	Cc1nnn(Cc2cc(Cl)ccc2/C=C/C(=O)N2CCC(Cc3ncc(C)o3)CC2)n1	–	–
470 µL/min/mg	20 nM	Cc1nnn(Cc2cc(Cl)ccc2/C=C/C(=O)N2CCN(Cc3ccc(F)cc3)CC2)n1	–	–
190 µL/min/mg	–	COc1ccc(CN2CCN(C(=O)/C=C/c3ccc(Cl)cc3Cn3nnc(C)n3)CC2)nc1	1900 nM	–
87 µL/min/mg	26 nM	Cc1cc(CN2CCN(C(=O)/C=C/c3ccc(Cl)cc3Cn3nnc(C)n3)CC2=O)on1	–	–
72 µL/min/mg	–	Cc1nnn(Cc2cc(Cl)ccc2/C=C/C(=O)N2CCN(Cc3coc(C)n3)CC2)n1	23000 nM	Tmax [3]: 0.4 h; clearance [4]: 45 mL/min/kg; AUC [5]: 4.4 µM·h; bioavailability [7]: 52%; Vd [10]: 1.6 L/kg; solubility thermodynamic [14]: > 1000 µM; Cmax [11]: 2.8 µM; half-life [12]: 0.8 h
520 µL/min/mg	9.2 nM	COc1ccc(CN2CCN(C(=O)/C=C/c3ccc(Cl)cc3Cn3nnc(C)n3)CC2)cc1	–	–
510 µL/min/mg	9.6 nM	Cc1nnn(Cc2cc(Cl)ccc2/C=C/C(=O)N2CCN(Cc3ccc(F)cc3)C[C@H]2C)n1	–	microsomal CLint [8]: 230 µL/min/mg
71 µL/min/mg	1600 nM	Cc1nnn(Cc2cc(Cl)ccc2/C=C/C(=O)N2CCN(C(=O)c3ccc(F)cc3)CC2)n1	–	–
88 µL/min/mg	–	Cc1cc(CN2CCN(C(=O)/C=C/c3ccc(Cl)cc3Cn3nnc(C)n3)CC2)on1	12000 nM	–
49 µL/min/mg	–	Cc1nnn(Cc2cc(Cl)ccc2/C=C/C(=O)N2CCN(Cc3cnn(C)c3)CC2)n1	15000 nM	–
